Measurements reported in patent US20200064357A1, “METHODS FOR DETERMINING AND MONITORING GASTROINTESTINAL INFLAMMATION” (Protagonist Therapeutics, Inc., priority 2016, published 2020).
Entries after “also recorded” stand apart in the source; their conditions may differ.

Tests used:
Format in all cases: in vivo
[1] = system: Sprague-Dawley rats; experiment: Serum LCN2, TNBS rat colitis model, ELISA (Example E2); conditions: per ml of serum, vs vehicle
Protocol: (§1) The animals were grouped into sham, vehicle, and Peptide 993 treatment at 31 mg/kg/day. Feces were collected from the distal colon of rats and were immediately frozen at the time of necropsy. The feces samples were weighed and homogenized in extraction buffer (PBS pH 7.4 containing Pierce Protease Inhibitors, 3× volume:weight). The samples were incubated on ice for 90 minutes, with intermittent vortexing for complete homogenization. After centrifugation at 3000 g at 4 C, the homogenates were transferred to fresh tubes and subjected to another centrifugation at 14000 g at 4 C. The cleared supernatants were saved in multiple aliquots and stored at −80 C until analysis.
The serum samples were immediately frozen and thawed only once before use in the ELISA. For LCN2, the samples were diluted at different ratios with assay dilution buffer to capture the large variation in concentration amongst the different groups. The dilution ratios used were 1:10 (for sham), 1:1000, 1:2000 and 1:10000 (vehicle and Peptide 993). Fecal Lipocalin2(LCN2)/NGAL analysis:
Serum samples were analyzed for LCN2 concentration using the above ELISA protocol. Serum samples were used at dilutions ranging from 1:[…] to ensure that the measurements were within the range and sensitivity of the kit. […] Statistical analysis was performed using 1-Way-ANOVA with Dunnetts's multiple comparison.

[2] = system: Sprague-Dawley rats; experiment: miR-223-3p expression in distal colon and serum, TNBS rat colitis model (Example E3); conditions: 31 mg/kg/day, vs vehicle group
Protocol: Animals from the sham group (without TNBS exposure), the vehicle group (exposed to TNBS and treated with vehicle only) and the group treated with Peptide 993 (exposed to TNBS and treated with Peptide 993 at 31 mg/kg/day) were subjected for gene expression and miroRNA analysis
For extraction of microRNA from distal colon homogenate, the RNeasy Plus Mini Kit and the RNeasy MinElute Cleanup Kit (Qiagen) were used. For extraction of microRNA from serum, miRNeasy Serum/Plasma Kit (Qiagen) was used. To verify uniformity of microRNA extraction, a synthetic microRNA cel-miR-39-3p, at a fixed concentration, was spiked into both distal colon homogenates and serum samples. The microRNAs purified from distal colon and serum was used in the Advanced miRNA cDNA Synthesis Kit (Applied Biosystems) to obtain cDNA templates for the quantative real time PCR. The expression of miR-223-3p, a microRNA known to negatively regulate CLDN8 gene expression, was measured using TaqMan Advanced miRNA assay (Applied Biosystems). The endogenous control miR-16-5p was used for normalization in the distal colon, and the endogenous control miR-24-3p was used for normalization in the serum. Relative expression of miR-223-3p was calculated using the normalized Ct values. […]

[3] = system: Sprague-Dawley rats; experiment: Disease pathology in TNBS-induced rat colitis: colon weight/length, colonic score, histology (Example E4)
Protocol: In the first model, acute colitis was induced in Sprague-Dawley rats by a single intra-rectal instillation of TNBS followed by efficacy analysis at day seven. The animals were grouped into sham+vehicle (PO TID), TNBS+vehicle (PO TID), anti-IL23p19 antibody (4 mg/kg/day IP, Day −1 and Day 3), and Peptide 993 treatment at 9, 28, or 61 mg/kg/day (PO TID+in drinking water). Sham indicates animals not treated with TNBS.
Following treatment, weight and length were determined from entire colon; colonic score was evaluated as sum of adhesion (0-2), stricture (0-3), ulcer (0-5), and colon wall thickness (0-2); histology was evaluated by a pathologist as sum of mucosal/submucosal inflammation (0-5), transmural inflammation (0-5), erosion (0-5), and gland loss (0-5). Values shown as mean±SD (FIGS. 9A-9C). Statistical significance was assessed by One-way ANOVA with post-hoc Dunnett's vs. Vehicle control: **p≤0.01; ***p≤0.001; ****p≤0.0001; ns, not significant.

[4] = system: Sprague-Dawley rats; experiment: CLDN8 gene expression and colonic score in TNBS-induced rat colitis (Example E5)
Protocol: The claudin family of proteins are components of the tight junction complex. Through expression analysis and colonic scoring, claudins were analyzed as biomarkers for IBD disease severity. […] CLDN8 gene expression was analyzed in a TNBS-induced rat model of […] following the protocols described in Example E1.

[5] = system: Sprague-Dawley rats; experiment: Protein biomarkers in feces, TNBS rat colitis model, ELISA (Example E2); conditions: 31 mg/kg/day, normalized to total protein, vs vehicle
Protocol: as §1
The total protein in each sample was quantified using BCA assay. LCN2, MPO, and MMP-9 protein concentration in the feces samples were analysed using commercially available rat ELISA kits. For LCN2, the samples were diluted at different ratios with assay dilution buffer to capture the large variation in concentration amongst the different treatment groups. The dilution ratios used were 1:20 (sham), 1:200, 1:1000, 1:2000, and 1:4000 (vehicle and Peptide 993).
The concentration of LCN2 was normalized to the total protein measured for the sample. […] Statistical analysis was performed using 1-Way-ANOVA with Dunnetts's multiple comparison.
Fecal homogenates were analyzed for Myeloperoxidase (MPO) concentration using the Rat MPO ELISA kit (Catalog # HK105, Hycult biotech). The samples were used at dilutions ranging from 1:20 to 1:1000, to ensure that the measurements were within the range and sensitivity of the kit. […] A linear equation was used to fit the Standard Curve and the fitting parameters were used to calculate the concentration of MPO. The concentration of MPO for each sample was normalized to the total protein measured for the sample as described above. […] Statistical analyses were performed using 1-Way-ANOVA with Dunnetts's multiple comparison.

[6] = TNBS rats, day seven, 9, 28 or 61 mg/kg/day PO TID + in drinking water, vs vehicle
[7] = acute TNBS-induced rat colitis model, oral treatment

Question: `CC(=O)NC(CCCNC(=N)N)C(=O)NC1CCSCC(C(=O)NC(Cc2ccc(OCCN)cc2)C(=O)NC(Cc2ccc3ccccc3c2)C(=O)NC2(C(=O)NC(CCC(=O)O)C(=O)NC(CC(N)=O)C(=O)NC(CC(N)=O)C(N)=O)CCOCC2)NC(=O)C(CCC(N)=O)NC(=O)C(Cc2c[nH]c3ccccc23)NC(=O)C(C(C)O)NC(=O)C(CCC(N)=O)NC1=O` (stereo not shown) [Peptide 993, Ac-[(D)-Arg]-cyclo[[Abu]-QTWQC]-[Phe[4-(2-aminoethoxy)]]-[2-Nal]-[4-amino-4-carboxy-tetrahydropyran]-ENN-NH2] was tested. Which “serum LCN2 concentration” value [1] did it give?
Answer: statistically significant decrease

Question: What about the “miR-223-3p expression in the distal colon” value ([2]; normalized to miR-16-5p) of the same compound?
Answer: not statistically significant, however there was a marked reduction in the average expression of the group

Question: And the “miR-223-3p expression in serum” value ([2]; normalized to miR-24-3p)?
Answer: no apparent change

Question: And the colon weight-to-length ratio [3, 6]?
Answer: significant and dose-dependent reduction

Question: And the “histopathological changes in the colon” value [3, 6]?
Answer: normalization

Question: And the “macroscopic changes in the colon (colonic score)” value [3, 6]?
Answer: normalization

Question: And the “activity compared with neutralizing anti-IL-23p19 monoclonal antibody (4 mg/kg/day IP)” value [3, 7]?
Answer: comparable

Question: And the disease parameters [3, 7]?
Answer: significant and dose-dependent attenuation

Question: And the “levels of CLDN8 expression, distal colon” value ([4]; vs vehicle control-treated)?
Answer: restored levels of CLDN8 expression above vehicle control-treated subjects

Question: And the “colonic score (0-12)” value ([4]; vs vehicle treated animals)?
Answer: reduced

Question: What about the “fecal LCN2 concentration” value [5] of the same compound?
Answer: statistically significant decrease; also recorded: stastically significant decrease

Question: What about the “fecal MMP-9 concentration” value [5] of the same compound?
Answer: stastically significant decrease

Question: What about the “fecal MPO concentration” value [5] of the same compound?
Answer: statistically significant decrease; also recorded: stastically significant decrease
